The nature of data set [1]: Levetiracetam blood plasma levels in aMCI patients. The settings on record: human, oral, based on aMCI patients, read-out: effective plasma level range (preferred range goal). The format is in vivo. From the text:
Visit 1: At the end of the first drug/placebo period 2 weeks after the Baseline Visit, the medical, neurological and psychiatric evaluations and cognitive testing are repeated. The subject is also clinically evaluated for suicidal ideation. Blood is drawn again to repeat the standard tests and to determine whether there are any changes related to drug treatment; the subject's blood levetiracetam level is also obtained. All medication dispensed at the Baseline Visit (drug or placebo) is collected and subject compliance with the medication regimen is assessed. The first fMRI session (with cognitive tests) is conducted on the same day, either immediately before or immediately after the clinical assessment. Subjects discontinue first period treatment at this visit.
Visit 2: At approximately 2 weeks after the Washout Visit (i.e., 2 weeks after starting the second treatment period), the medical, neurological and psychiatric evaluations and the cognitive testing are repeated. The subject is clinically evaluated for suicidal ideation. […] All medication dispensed at the Washout Visit is collected and subject compliance with the medication regimen is assessed. […]
Human – in the human studies described in Examples 2 and 3, a subject's levetiracetam blood plasma level was assessed at each visit. […]

Data set [2] concerns aMCI subjects. Put plainly: Neuropsychological tests (Buschke Selective Reminding, Benton Visual Retention, Verbal Paired Associates). Format: in vivo, human. The settings on record: levetiracetam 125 mg twice a day for two weeks. The source says:
All participants undergo neuropsychological evaluation at the time of assessment for treatment efficacy (Visits 1 and 2), as well as at the Baseline Visit. The evaluation occurs outside of the scanner and includes the Buschke Selective Reminding Test (Buschke and Fuld, 1974) and the Verbal Paired Associates subtest, the Logical Memory subtest, the Visual Reproduction subtest of the Wechsler Memory Scale-Revised (WMS-R) (Wechsler, 1997), and the Benton Visual Retention Test, as these tasks are particularly sensitive to medial temporal lobe function and early memory problems (Marquis et al., 2002 and Masur et al., 1994). Additionally, subjects are asked to complete tests of more general cognitive function such as tests to assess general mental status, executive function, attention and general naming ability. All neuropsychological tests are administered by a trained research assistant during a 60-minute session. As the three neuropsychological assessments in this study occur within a time period of 8 weeks, different versions of the neuropsychological tests are used to minimize test specific practice effects. Breaks are provided to the subject as needed.

In data set [3] the test system is somatostatin in DG hilus. Kind of data set: Somatostatin immunohistochemistry, SOM-immunoreactive neurons in DG hilus. The format is in vivo, rat. Conditions: 10 mg/kg/day, four weeks, osmotic mini-pumps; AI-LEV vs AI-VEH p<0.01. The source says: Tissue was labeled with anti-SOM antiserum (Santa Cruz Biotechnology; cat. no. SC7819-P) using an established immunoperoxidase protocol and tissue sections were processed concurrently to minimize inter-replication variability (Haberman et al., 2009). The anti-SOM antiserum can detect somatostatin. Briefly, sections were washed in 0.1M phosphate-buffered saline (PBS) to remove cryoprotectant, and endogenous peroxidases were quenched in 0.3% H202 in PBS. After additional PBS washes, sections were blocked in 5% normal horse serum in PBS with 0.3% Triton. Sections were then incubated with primary antibody at a dilution of 1:1600 in PBS containing 0.15% Triton and 3% normal serum for 72 hours at 4° C. with agitation. […] The secondary antibody was detected with avidin-biotin complex (ABC Elite; Vector Laboratories Inc., Burlingame, Calif.) and the avidin-biotin complex was visualized with nickel-enhanced diaminobenzadine (Vector Laboratories Inc., Burlingame, Calif.). […]
Interneuron quantification was performed using a Zeiss Axioplan 2 microscope equipped with a motorized stage. […] Neuron counts were analyzed as the total number of hilar interneurons per hippocampal section for each rat.

Turning to `CC[C@@H](C(N)=O)N1CCCC1=O` [levetiracetam, (2S)-2-(2-oxopyrrolidin-1-yl)butanamide], the concentration at 2 weeks in data set [1] lay in the range of 2900 to 4400 ng/mL. In addition, in data set [2], the “Benton Visual Retention Test performance” value is on record as “fail to rescue performance”, the “Buschke Selective Reminding Test-Delayed Recall performance” value is “fail to rescue performance”, the “Verbal Paired Associates Test-Delayed Recall performance” value is listed as “fail to rescue performance” and the “Verbal Paired Associates Test-Recognition performance” value was “fail to rescue performance”. Also, the “levels of somatostatin in DG hilus (SOM-immunoreactive hilar neurons)” value in data set [3] is “restores the levels of somatostatin”.

For the origin of these results see patent publication US20220062296A1, “COMBINATIONS OF GABAA ALPHA 5 AGONISTS AND SV2A INHIBITORS AND METHODS OF USING IN THE TREATMENT OF COGNITIVE IMPAIRMENT” (AGENEBIO, INC., priority 2020, published 2022).
